In brackets after ≈: the same amount, converted by molar mass.
Experiments:
[1] = target: T1, MtbIspE (Mycobacterium tuberculosis, UniProt P9WKG7); assay: target-directed dynamic combinatorial chemistry (tdDCC), amplification of acylhydrazones in protein-templated vs blank DCL (HPLC-MS/MS, UV 310 nm); format: binding; conditions: DCL-3, 24 h, 40 mol % MtbIspE; I1 and K1 integrated as one cluster
Method: In this study, we used MtbIspE as target protein and the reversible reaction of hydrazides and aldehydes to form dynamic combinatorial libraries (DCLs) of acylhydrazones. […] To accelerate the reaction at neutral pH, aniline was used as nucleophilic catalyst activating the aldehydes.[2],[4],[19] We analyzed the protein’s effect on the DCLs by comparing HPLC-MS/MS data of blank vs protein-templated (PT) experiments. The experiments spanned 3 days, with periodic sampling (every 2 h, followed by two samples per day after 8 h). The addition of NaOH to raise the pH and halt the reactions ensured the sample composition was preserved for analysis.[19] Templated experiments were conducted in duplicate, and the protein was denatured and removed prior to HPLC-MS/MS analysis.
The tdDCC hits and thus potential MtbIspE binders are amplified in the PT experiment compared to the blank experiment. The first step in the analysis of DCLs is the determination of the equilibrium since the amplification factors need to be calculated when the concentration of products is stable. To determine the evolution of the possible products, it is important to measure the characteristic UV absorbance of the acylhydrazones linker (310 nm) during the HPLC-MS/MS run. The resulting UV peaks are assigned to each product using the MS data (Figures S3–S6). The sum of all peak areas is normalized to 100% in order to obtain the respective relative peak area (RPA) for each product. The RPA values represent relative concentrations, determined at each time point of the blank experiment until the values stabilize. […] However, the rest of the compounds are out of range, making a visual inspection difficult. […] The other three libraries behaved in the same way, reaching equilibrium within 24 h and also maintained stable concentrations beyond (Figures S7–S9). To determine the tdDCC hits, we compared the RPAs of the PT experiments to the blanks at 24 h and set a threshold of at least 50% increase in compound formation. In total, 11 acylhydrazones passed our criteria, with amplification factors ranging from […] to 15.5, qualifying them for resynthesis and further evaluation (Figure 3). During the analysis of chromatograms, challenges arose concerning product identification. Some compound peaks were not neatly separated, forcing us to consider them in clusters, others presented two peaks, likely due to isomers, and were considered separately in our evaluation. Lastly, some compounds were detected by MS, but their respective UV signal interfered with the injection peak or was too low for integration (<1%), both in the blank and PT experiments. Consequently, we excluded these compounds from the analysis (Figure S3–S6).
To a well of a 24-well plate, containing Tris buffer (pH 7.0) were added hydrazides (300 μM each, in DMSO), aldehydes (100 μM each, in DMSO), aniline (20 mM, in DMSO), the protein MtbIspE (25 or 40 μM in Tris buffer at pH 7.0), and an additional amount of DMSO to reach a final concentration of 5% in the DCL with 0.5 mL of end-volume. The DCL was allowed to mix on a plate shaker at room temperature and was frequently monitored via LCMS-MS. For analysis, 30 μL of the corresponding library was mixed with 42 μL acetonitrile and 3 μL of NaOH (1 M), the mixture was centrifuged, and the supernatant was used for the analysis. PT experiments were run in duplicates and the protein was omitted for the blank experiments.
High-resolution mass (HRMS) of final products was determined by HPLC-MS/MS using a Thermo Scientific Q Exactive Focus Orbitrap LC -MS/MS system. All compounds were analyzed for purity by LCMS on Acquity UPLC-SQD system from Waters with a gradient elution of Water (Formic acid 0.1%)/Acetonitrile on an HSS - T3 column (2.1 x 50 mm, Waters), 1.8 µm, at 30°C, PDA detection between 240 -320 nm, and MS detection by simultaneous ES+/ES- ionization in a mass range of 150 -800. The flow is set to 0.9 ml/min, and the […]
gradient time is 1.5 min. […]

[2] = in vitro; conditions: human, HepG2 CC50, HepG2, 48 h, MTT
[3] = solubility in M. tuberculosis 7H9 growth medium; format: physicochemical; conditions: Mtb 7H9 growth medium
Method: Prior to biological evaluation of the tdDCC hits, we tested their solubility in a standard buffer as well as in M. tuberculosis 7H9 growth medium. […] Regrettably, with 3.3 μM the least soluble compound is E1, making our most amplified and promising compound unsuitable for biological evaluation. We assessed the solubility in Mtb growth medium given that it is a complex, nutrient-rich environment with a distinct solubility profile. However, the trend continued, only seven hits are soluble at 8 μM or above, the remaining five compounds, including E1, were not eligible for antitubercular activity testing (Table 1).
Determination of in vitro anti-tubercular activity and solubility in 7H9 medium Anti-tubercular tests were performed as previously described .1 In brief, 7H9 complete medium (BD Difco; Becton Dickinson, Maryland,USA) supplemented with 10% OADC (BD), 0.2% glycerol, and 0.05% Tween80 as previously described ,3 was used to culture Mycobacterium tuberculosis (Mtb) strain H37Rv (ATCC 25618) carrying a mCherry -expressing plasmid (pCherry10 ).4 Cultures were harvested at mid-log phase and frozen in aliquots at – 80 °C. Prior to testing aliquots were thawed followed by centrifugation and the pellet was resuspended in 7H9 medium with 10% OADC (without glycerol and Tween80). This was further thoroughly resuspended by passing it through a syringe with a 26 -gauge needle to avoid clumping of the bacteria. 2×10^5 CFU (colony forming units) were then cultured in a total volume of 100 μl culture medium (triplicates) to test the non-precipitating compounds for the anti-tubercular activity at the concentrations indicated. For these assays, 96-well flat clear bottom black polystyrene microplates (Corning® CellBIND®, Merck, New York, USA) wer e used. Each plate had Rifampicin (at 1 μg/ml and 0.1 μg/ml) (National Reference Center, Borstel) as a reference compound. Plates were sealed with an air -permeable membrane (Porvair Sciences, Wrexham, UK) in a 37 °C incubator with mild agitation (TiMix5, Edmund Bühler, Germany). The activity of compounds was determined after 7 days by measuring the bacterial growth as relative light units (RLU) from the fluorescence intensity obtained at an excitation wavelength of 575 nm and an emission wavelength of 635 n m in a microplate reader (Synergy 2, BioTek Instruments, Vermont, USA). Two independent experiments (each in triplicates) were performed, and all values were normalized to untreated control sample (100%) in each experiment.
To obtain information regarding the toxicity of our compounds, their impact on the viability of human cells was investigated. HepG2 cells (2x10^4 cells per well) were seeded in 96 -well, flat-bottomed culture plates in 100 µL culture medium (DMEM containing 10% fetal calve serum, 1% penicillin -streptomycin). Twenty-four hours after seeding the cells, medium was removed and replaced by medium containing test compounds in a final DMSO concentration of 1%. Compounds were tested in duplicates at a single concentration or, for CC50 determination, at 8 concentrations that were prepared via 2 -fold serial dilutions in 1% DMSO/medium. Epirubicin and doxorubicin were used as positive controls in serial dilutions starting from 10 µM, and rifampicin was used as a negative control (at 100 µM). The living cell mass was determined 48 h after treatment with compounds by adding 0.1 volumes of 3 -(4,5-dimethylthiazol-2-yl)-2,5-diphenyltetrazolium bromide (MTT) solution (5 mg/mL sterile PBS) (Sigma, St. Louis, MO) to the wells. After incubating the cells for 30 min at 37 °C (atmosphere containing 5% CO2), medium was removed and MTT crystals were dissolved in 75 µL of a solution containing 10% SDS and 0.5% acetic acid in DMSO. The optical density (OD) of the samples was determined photometrically at 570 nm in a PHERAstar Omega plate reader (BMG labtech, Ortenberg, Germany). To obtain percent viability for each sample, their ODs were related to those of DMSO controls. […]

[4] = target: T1, MtbIspE; assay: MtbIspE binding study via thermal shift assay; conditions: read-out: MtbIspE ΔTm at 20 μM
[5] = target: T1, MtbIspE; assay: MtbIspE binding study via MicroScale Thermophoresis (MST); conditions: MST, 20 μM ligand, 200 nM MtbIspE, triplicate; qualitative
[6] = physchem; conditions: aqueous with cosolvent or surfactant or cyclodextrin, kinetic from dmso stock, solubility 5% DMSO in PBS
[7] = test system: HepG2 cells; conditions: read-out: HepG2 CC50; HepG2, 48 h, MTT
[8] = test system: EcK12; assay: E. coli growth inhibition, wild-type strain K12; format: cell-based, Escherichia coli; conditions: Escherichia coli, 18 h, LB medium, read-out: EcK12 %inh. At 50 μM
[9] = test system: EcTolC; assay: microbe, parasite or virus in culture; format: cell-based; conditions: Escherichia coli, 18 h, LB medium, read-out: EcTolC %inh. At 50 μM

T1 sequence (P9WKG7 whole entry): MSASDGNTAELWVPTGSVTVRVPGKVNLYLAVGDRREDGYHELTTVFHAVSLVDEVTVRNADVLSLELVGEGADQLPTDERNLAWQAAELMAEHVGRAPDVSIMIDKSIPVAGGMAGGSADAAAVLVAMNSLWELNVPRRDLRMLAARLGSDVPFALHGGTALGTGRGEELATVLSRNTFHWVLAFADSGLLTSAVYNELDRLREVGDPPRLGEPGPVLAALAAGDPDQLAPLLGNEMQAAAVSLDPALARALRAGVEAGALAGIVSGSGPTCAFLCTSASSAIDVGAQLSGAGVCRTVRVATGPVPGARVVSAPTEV

Row | Compound | Amplification factors (DCL-3) [1] | CC50 [2] [µM] | solubility in 7H9 [3] | ΔTm at 20 µM [4] [°C] | MtbIspE binding at 20 μM [5] | solubility at 5 min [6] [µM] | CC50 [7] [µM] | inhibition at 50 µM [8] [%] | inhibition at 50 µM [9] [%]
1 | O=C(N/N=C/c1cc(Cl)ccc1O)c1cccc(Cl)c1 [K1, (E)-3-Chloro-N′-(5-chloro-2-hydroxybenzylidene)benzohydrazide] | 2.0 | < 10 | insoluble | 0.7 | consistently demonstrated binding across all measurements and Yes | 25 ± 4 (≈ 7.73 µg/mL) | 7 ± 3 | < 10 | 
2 | CC(C)Cc1cc(C(=O)N/N=C/c2cc(Cl)ccc2O)[nH]n1 [D1, (E)-N′-(5-Chloro-2-hydroxybenzylidene)-3-isobutyl-1H-pyrazole-5-carbohydrazide] |  | < 10 | insoluble | < 0.3 | No | 22 ± 9 (≈ 7.06 µg/mL) | 7.9 ± 0.8 | 11 ± 4 | 28 ± 11
